# Earlier results as cited in US20220080020A1, “COMPOSITIONS AND METHODS FOR REDUCING THE TRAN[…] […] USING AN ORAL […] SYSTEM” (priority 2020, published 2022).
# What was measured:
# [1] = aqueous solution
# [2] = children, xylitol chewing gum or oral solution
# ACE2 receptor = conditions: prevents covid 19 attachment
SMILES,solubility (saturated solution) [1],reduction in the incidence of otitis [2],competition with the ACE2 receptor (ACE2 receptor)
OC[C@@H](O)[C@H](O)[C@@H](O)CO [xylitol],up to 64.2 grams per 100 ml of solution,between a thirty and forty-percent reduction,
Cc1cc(O)c2c(c1)C(=O)c1cc(O)cc(O)c1C2=O [Emodin],,,compete with the ACE2 receptor
